Data on 21 molecules can be found in US20120220564A1, “SELECTIVE CALCIUM CHANNEL MODULATORS” (Zalicus Pharmaceuticals Ltd., priority 2009, published 2012).

Molecules are shown by their SMILES. Bounds are passed on as bounds.

One series has as its target T1, α1G (CaV 3.1) (Homo sapiens, UniProt O43497).
T1 construct: expressed in transfected cells; host or cells: HEK 293
The series is described as follows: T-type calcium channel block, whole cell patch clamp. To be noted: HEK cells, mainly non-inactivated protocol; values above 10,000 nM represented as 10000. It is filed as cell-based. As for the experimental part:
(§1) T-type calcium channel blocking activity was assayed in human embryonic kidney cells, HEK 293 (Invitrogen), stably transfected with the T-type calcium channel subunits. Briefly, cells were cultured in Dulbecco's modified eagle medium (DMEM) supplemented with 10% fetal bovine serum, 200 U/ml penicillin, and 0.2 mg/mL streptomycin at 37° C. with 5% CO2. At 85% confluency, cells were split with 0.25% trypsin/1 mM EDTA and plated at 10% confluency on glass coverslips. At 12 hours, the medium was replaced, and the cells stably transfected using a standard calcium phosphate protocol and the appropriate calcium channel cDNA's. Fresh DMEM was supplied, and the cells transferred to 28° C./5% CO2. Cells were incubated for 1 to 2 days prior to whole cell recording.
(§2) Standard patch-clamp techniques were employed to identify blockers of T-type currents. Briefly, previously described HEK cell lines stably expressing human α1G, α1H and α1I T-type channels were used for all the recordings (passage #: 4-20, 37° C., 5% CO2). Whole cell patch clamp experiments were performed using an Axopatch 200B amplifier (Axon Instruments, Burlingame, Calif.) linked to a personal computer equipped with pCLAMP software. Data were analyzed using Clampfit (Axon Instruments) and SigmaPlot 4.0 (Jandel Scientific). To obtain T-type currents, plastic dishes containing semi-confluent cells were positioned on the stage of a ZEISS AXIOVERT S100 microscope after replacing the culture medium with external solution (Table 2). Whole-cell patches were obtained using pipettes (borosilicate glass with filament, O.D.: 1.5 mm, I.D.: 0.86 mm, 10 cm length), fabricated on a SUTTER P-97 puller with resistance values of ˜5 MΩ (Table 3).
(§3) T-type currents were reliably obtained by using two voltage protocols:
(§4) In the non-inactivating protocol, the holding potential is set at −110 mV and with a pre-pulse at −100 mV for 1 second prior to the test pulse at −40 mV for 50 ms. In the inactivation protocol, the pre-pulse is at approximately −85 mV for 1 second, which inactivates about 15% of the T-type channels (Scheme 1).
(§5) Test compounds were dissolved in external solution, 0.1-0.01% DMSO. After ˜10 minutes rest, they were applied by gravity close to the cell using a WPI microfil tubing. The “non-inactivated” pre-pulse was used to examine the resting block of a compound. The “inactivated” protocol was employed to study voltage-dependent block. However, the initial data shown below were mainly obtained using the non-inactivated protocol only. IC50 values are shown for various compounds of the invention in Table 4. […] In Table 4, empty cells indicate that inhibition by the compound was not detected.

For another series, the target named is T2, α1H (CaV 3.2) (Homo sapiens, UniProt O95180).
T2 construct: expressed in transfected cells; host or cells: HEK 293
The series is described as above. In kind it is cell-based. The settings on record: HEK cells, mainly non-inactivated protocol; values above 10,000 nM represented as 10000. As for the experimental part:
as §1, §2, §3, §4, §5

Series [1] has as its system minimal muscular or neurological impairment (rotarod). The series is described as follows: Mouse rotarod assay. In kind it is in vivo, mice. On the procedure:
To assess a compound's undesirable side effects (toxicity), animals can be monitored for overt signs of impaired neurological or muscular function. In mice, the rotarod procedure (Dunham and Miya, J. Am. Pharmacol. Assoc. 46:208-209 (1957)) is used to disclose minimal muscular or neurological impairment (MMI). When a mouse is placed on a rod that rotates at a speed of 6 rpm, the animal can maintain its equilibrium for long periods of time. The animal is considered toxic if it falls off this rotating rod three times during a 1-min period.
For orientation: Falling from the rotarod earlier than controls is read as motor impairment.

The subject of a further series is 6 Hz psychomotor seizure. As to the kind of experiment: 6 Hz psychomotor seizure model of partial epilepsy. It is filed as in vivo, mice. Also noted: concentration or dose not given beside the values. An excerpt: Compounds can also be evaluated for the protection against seizures induced by a 6 Hz, 0.2 ms rectangular pulse width of 3 s duration, at a stimulus intensity of 32 mA (CC97) applied to the cornea of male CF1 mice (20-30 g) according to procedures described by Barton et al, “Pharmacological Characterization of the 6 Hz Psychomotor Seizure Model of Partial Epilepsy,” Epilepsy Res. 47(3):217-27 (2001). Seizures are characterised by the expression of one or more of the following behaviours: stun, forelimb clonus, twitching of the vibrissae and Straub-tail immediately following electrical stimulation.

T2 sequence (O95180 whole entry): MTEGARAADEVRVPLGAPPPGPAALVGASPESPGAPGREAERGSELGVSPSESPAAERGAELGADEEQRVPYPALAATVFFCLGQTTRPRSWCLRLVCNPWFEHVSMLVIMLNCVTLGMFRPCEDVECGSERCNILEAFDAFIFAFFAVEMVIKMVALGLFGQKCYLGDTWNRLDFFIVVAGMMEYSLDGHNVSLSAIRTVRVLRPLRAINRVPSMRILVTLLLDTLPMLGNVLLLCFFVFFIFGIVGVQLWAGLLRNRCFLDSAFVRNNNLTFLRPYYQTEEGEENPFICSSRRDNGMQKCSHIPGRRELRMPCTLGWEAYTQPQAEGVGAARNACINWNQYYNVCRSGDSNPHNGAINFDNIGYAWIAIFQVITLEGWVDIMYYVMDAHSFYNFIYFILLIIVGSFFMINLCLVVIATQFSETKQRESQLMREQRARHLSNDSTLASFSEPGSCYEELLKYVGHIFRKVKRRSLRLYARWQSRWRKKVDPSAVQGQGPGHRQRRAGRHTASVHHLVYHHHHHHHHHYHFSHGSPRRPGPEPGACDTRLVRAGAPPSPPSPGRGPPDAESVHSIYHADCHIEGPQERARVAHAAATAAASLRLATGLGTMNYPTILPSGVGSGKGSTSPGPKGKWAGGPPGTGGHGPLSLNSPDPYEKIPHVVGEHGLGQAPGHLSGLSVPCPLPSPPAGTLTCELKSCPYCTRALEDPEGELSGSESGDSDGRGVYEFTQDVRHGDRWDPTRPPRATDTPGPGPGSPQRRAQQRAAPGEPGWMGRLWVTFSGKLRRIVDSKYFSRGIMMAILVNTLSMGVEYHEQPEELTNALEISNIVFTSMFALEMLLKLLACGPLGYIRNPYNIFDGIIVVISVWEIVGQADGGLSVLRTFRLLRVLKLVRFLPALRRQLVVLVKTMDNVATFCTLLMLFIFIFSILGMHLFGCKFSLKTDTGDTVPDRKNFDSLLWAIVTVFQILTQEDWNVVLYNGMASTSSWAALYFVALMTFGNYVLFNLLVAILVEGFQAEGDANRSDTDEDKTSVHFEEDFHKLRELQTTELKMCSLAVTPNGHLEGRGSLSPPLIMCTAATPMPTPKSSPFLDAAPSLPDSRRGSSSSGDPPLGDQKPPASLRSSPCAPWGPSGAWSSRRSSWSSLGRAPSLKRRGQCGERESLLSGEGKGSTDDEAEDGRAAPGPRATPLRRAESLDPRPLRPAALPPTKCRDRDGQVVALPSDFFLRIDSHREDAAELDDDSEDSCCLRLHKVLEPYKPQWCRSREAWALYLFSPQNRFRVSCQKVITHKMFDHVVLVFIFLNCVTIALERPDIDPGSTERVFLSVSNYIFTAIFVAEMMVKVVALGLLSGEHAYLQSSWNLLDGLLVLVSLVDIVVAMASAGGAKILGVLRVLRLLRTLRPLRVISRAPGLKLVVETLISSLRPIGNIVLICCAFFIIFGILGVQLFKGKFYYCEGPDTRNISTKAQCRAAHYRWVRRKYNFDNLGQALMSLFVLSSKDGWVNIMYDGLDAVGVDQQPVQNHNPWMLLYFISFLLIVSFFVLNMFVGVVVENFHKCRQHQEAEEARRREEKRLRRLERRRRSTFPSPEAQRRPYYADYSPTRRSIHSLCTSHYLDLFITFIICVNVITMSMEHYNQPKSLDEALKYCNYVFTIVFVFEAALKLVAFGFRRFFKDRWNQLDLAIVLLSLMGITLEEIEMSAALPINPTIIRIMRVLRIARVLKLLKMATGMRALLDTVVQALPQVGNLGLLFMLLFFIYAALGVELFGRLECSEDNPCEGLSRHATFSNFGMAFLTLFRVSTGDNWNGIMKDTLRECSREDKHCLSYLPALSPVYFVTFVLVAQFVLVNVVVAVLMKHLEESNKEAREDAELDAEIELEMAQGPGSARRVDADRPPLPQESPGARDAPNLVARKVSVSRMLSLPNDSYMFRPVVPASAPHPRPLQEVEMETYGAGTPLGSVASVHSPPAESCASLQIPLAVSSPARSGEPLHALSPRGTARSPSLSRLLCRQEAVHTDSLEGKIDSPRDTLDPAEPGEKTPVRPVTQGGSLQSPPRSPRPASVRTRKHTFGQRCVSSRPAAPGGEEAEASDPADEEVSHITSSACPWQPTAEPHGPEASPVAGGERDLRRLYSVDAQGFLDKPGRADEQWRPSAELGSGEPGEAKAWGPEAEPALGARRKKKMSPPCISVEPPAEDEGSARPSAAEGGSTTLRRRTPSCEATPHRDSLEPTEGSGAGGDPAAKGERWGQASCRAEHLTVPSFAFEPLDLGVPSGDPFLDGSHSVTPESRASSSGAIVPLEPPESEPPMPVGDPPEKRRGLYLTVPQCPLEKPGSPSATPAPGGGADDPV
T1 sequence (O43497 whole entry): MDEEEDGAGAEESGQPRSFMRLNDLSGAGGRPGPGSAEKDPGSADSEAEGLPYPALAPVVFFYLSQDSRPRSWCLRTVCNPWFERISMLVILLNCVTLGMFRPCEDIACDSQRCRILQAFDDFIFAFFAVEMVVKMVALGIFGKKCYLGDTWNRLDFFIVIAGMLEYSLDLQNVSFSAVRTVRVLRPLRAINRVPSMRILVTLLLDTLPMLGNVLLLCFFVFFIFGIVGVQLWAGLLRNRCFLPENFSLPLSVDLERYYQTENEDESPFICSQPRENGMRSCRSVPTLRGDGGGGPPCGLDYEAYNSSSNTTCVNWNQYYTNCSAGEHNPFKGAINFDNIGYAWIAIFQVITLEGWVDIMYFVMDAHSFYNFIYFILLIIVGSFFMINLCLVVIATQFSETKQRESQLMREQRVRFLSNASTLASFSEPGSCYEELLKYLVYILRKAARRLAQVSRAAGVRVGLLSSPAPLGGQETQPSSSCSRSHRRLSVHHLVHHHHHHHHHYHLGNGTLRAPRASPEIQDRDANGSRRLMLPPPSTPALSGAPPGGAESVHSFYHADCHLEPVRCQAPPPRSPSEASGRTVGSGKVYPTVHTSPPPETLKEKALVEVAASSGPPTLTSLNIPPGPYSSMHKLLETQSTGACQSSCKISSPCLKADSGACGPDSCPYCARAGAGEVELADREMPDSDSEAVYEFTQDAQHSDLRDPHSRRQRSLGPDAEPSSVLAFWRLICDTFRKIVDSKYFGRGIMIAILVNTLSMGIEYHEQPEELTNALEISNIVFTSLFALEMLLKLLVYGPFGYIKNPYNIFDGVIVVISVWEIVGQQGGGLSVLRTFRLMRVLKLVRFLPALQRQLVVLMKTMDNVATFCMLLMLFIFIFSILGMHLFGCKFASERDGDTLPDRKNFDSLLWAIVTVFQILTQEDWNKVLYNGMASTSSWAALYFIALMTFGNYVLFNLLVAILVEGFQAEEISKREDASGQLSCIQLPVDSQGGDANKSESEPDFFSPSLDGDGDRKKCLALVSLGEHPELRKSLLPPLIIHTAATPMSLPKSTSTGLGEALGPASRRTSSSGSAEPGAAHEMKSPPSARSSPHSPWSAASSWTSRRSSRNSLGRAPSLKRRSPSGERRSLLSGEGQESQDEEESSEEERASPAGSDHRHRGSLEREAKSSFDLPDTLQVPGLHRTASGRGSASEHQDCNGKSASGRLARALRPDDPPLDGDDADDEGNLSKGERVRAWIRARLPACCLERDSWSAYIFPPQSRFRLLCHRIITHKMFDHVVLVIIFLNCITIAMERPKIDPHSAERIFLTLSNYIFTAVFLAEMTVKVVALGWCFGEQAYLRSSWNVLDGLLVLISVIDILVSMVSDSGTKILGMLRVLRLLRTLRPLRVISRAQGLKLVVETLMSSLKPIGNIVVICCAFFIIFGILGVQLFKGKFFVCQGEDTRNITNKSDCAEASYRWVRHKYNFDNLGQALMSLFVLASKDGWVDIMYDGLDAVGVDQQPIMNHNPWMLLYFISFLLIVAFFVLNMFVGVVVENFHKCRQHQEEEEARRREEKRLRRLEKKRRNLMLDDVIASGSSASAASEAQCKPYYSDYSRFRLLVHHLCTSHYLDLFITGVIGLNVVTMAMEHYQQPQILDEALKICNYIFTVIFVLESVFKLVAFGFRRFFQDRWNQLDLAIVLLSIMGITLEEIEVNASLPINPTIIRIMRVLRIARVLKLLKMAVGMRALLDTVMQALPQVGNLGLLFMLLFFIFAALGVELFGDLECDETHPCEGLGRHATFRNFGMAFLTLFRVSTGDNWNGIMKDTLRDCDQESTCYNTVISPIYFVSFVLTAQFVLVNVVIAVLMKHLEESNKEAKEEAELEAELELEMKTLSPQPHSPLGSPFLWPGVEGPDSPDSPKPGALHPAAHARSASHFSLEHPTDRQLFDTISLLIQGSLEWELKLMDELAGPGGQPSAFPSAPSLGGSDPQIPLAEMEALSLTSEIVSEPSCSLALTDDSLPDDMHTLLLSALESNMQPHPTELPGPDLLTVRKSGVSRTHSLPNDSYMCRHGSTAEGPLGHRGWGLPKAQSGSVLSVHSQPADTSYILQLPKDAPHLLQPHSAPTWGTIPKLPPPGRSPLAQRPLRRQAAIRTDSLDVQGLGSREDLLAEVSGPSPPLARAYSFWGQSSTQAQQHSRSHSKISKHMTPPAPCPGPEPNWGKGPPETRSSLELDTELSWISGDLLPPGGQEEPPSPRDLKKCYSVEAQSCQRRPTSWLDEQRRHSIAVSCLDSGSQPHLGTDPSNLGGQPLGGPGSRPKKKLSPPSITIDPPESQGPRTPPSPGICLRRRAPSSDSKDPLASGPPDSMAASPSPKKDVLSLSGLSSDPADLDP

The IC50 is the concentration that gives 50% inhibition. Take `CC1(C(=O)N2CCC(CC(=O)Nc3cc(C(F)(F)F)cc(C(F)(F)F)c3)C2)CCCCN1` (stereo not shown) [Compound 34, N-(3,5-bis(trifluoromethyl)phenyl)-2-(1-(2-methylpiperidine-2-carbonyl)pyrrolidin-3-yl)acetamide]: the IC50 on α1G (CaV 3.1) came to 4400 nM; at α1H (CaV 3.2) it was 1940 nM.
For `N[C@H]1CCCC[C@@H]1C(=O)N1CCC(CC(=O)Nc2ccc(F)cc2)CC1` (racemic) [Compound 11, trans-2-(1-(2-aminocyclohexanecarbonyl)piperidin-4-yl)-N-(4-fluorophenyl)acetamide], the IC50 at α1H (CaV 3.2) was more than 10000 nM.
As for `CC(C)(N)CC(=O)N1CCC(CC(=O)Nc2cc(C(F)(F)F)cc(C(F)(F)F)c2)CC1` [Compound 42, 2-(1-(3-amino-3-methylbutanoyl)piperidin-4-yl)-N-(3,5-bis(trifluoromethyl)phenyl)acetamide], the IC50 on α1G (CaV 3.1) was more than 10000 nM; at α1H (CaV 3.2), 570 nM.
Consider `N[C@@H]1CCCC[C@@H]1C(=O)N1CCC(CNC(=O)Nc2cc(C(F)(F)F)cc(C(F)(F)F)c2)CC1` (racemic) [Compound 58], for which the IC50 on α1H (CaV 3.2) amounted to 250 nM.
With `O=C(CC1(O)CCN(C(=O)[C@H]2CCCCN2)CC1)Nc1cc(C(F)(F)F)cc(C(F)(F)F)c1` [Compound 53, (R)-N-(3,5-bis(trifluoromethyl)phenyl)-2-(4-hydroxy-1-(piperidine-2-carbonyl)piperidin-4-yl)acetamide], the IC50 on α1H (CaV 3.2) is 1860 nM.
As for `NC1(CC(=O)N2CCC(NC(=O)Nc3cc(C(F)(F)F)cc(C(F)(F)F)c3)CC2)CCCCC1` [Compound 64, 1-(1-(2-(1-aminocyclohexyl)acetyl)piperidin-4-yl)-3-(3,5-bis(trifluoromethyl)phenyl)urea], the IC50 on α1H (CaV 3.2) turned out to be 360 nM.
For `N[C@@H]1CCCC[C@H]1C(=O)N1CCC(CNC(=O)Nc2cc(C(F)(F)F)cc(C(F)(F)F)c2)CC1` (racemic) [Compound 57], on α1H (CaV 3.2), the IC50 came to 250 nM.
Same read-out and setting: the figure for `N[C@@H]1CCCC[C@H]1C(=O)N1CCC(O)(CC(=O)Nc2cc(C(F)(F)F)cc(C(F)(F)F)c2)CC1` (relative stereo) [Compound 51, trans-2-(1-(2-aminocyclohexanecarbonyl)-4-hydroxypiperidin-4-yl)-N-(3,5-bis(trifluoromethyl)phenyl)acetamide] is 490 nM; for `O=C(Nc1cc(C(F)(F)F)cc(C(F)(F)F)c1)NC1CCN(C(=O)[C@H]2CCCCN2)CC1` [Compound 61, (R)-1-(3,5-bis(trifluoromethyl)phenyl)-3-(1-(piperidine-2-carbonyl)piperidin-4-yl)urea] it is 690 nM.
`O=C(Nc1cc(C(F)(F)F)cc(C(F)(F)F)c1)OCC1CCN(C(=O)[C@H]2CCCCN2)CC1` [Compound 69]: the “Rotarod Assay (% impaired)” value in series [1] (0.25 hr) is listed as 0%; in series [1] (0.5 hr), 50%; in series [1] (1 hr), 50%; in series [1] (2 hr), 100%; in series [1] (4 hr), 100%. In addition, the “Epilepsy 6 Hz (% Protected)” value in the series on 6 Hz psychomotor seizure (0.25 hr) was determined as 75%; in the series with 6 Hz psychomotor seizure (0.5 hr) it was 75%; in the series with 6 Hz psychomotor seizure (1 hr), 50%; in the series on 6 Hz psychomotor seizure (2 hr), 100%; in the series with 6 Hz psychomotor seizure (4 hr), 33%.
`O=C(Nc1cc(C(F)(F)F)cc(C(F)(F)F)c1)NC1CCN(C(=O)[C@@H]2CCCCN2)CC1` [Compound 60, (S)-1-(3,5-bis(trifluoromethyl)phenyl)-3-(1-(piperidine-2-carbonyl)piperidin-4-yl)urea]: at α1H (CaV 3.2), the IC50 is 950 nM.
Consider `N[C@@H]1CCCC[C@@H]1C(=O)N1CCC(CC(=O)Nc2cc(C(F)(F)F)cc(C(F)(F)F)c2)CC1` [Compound 73], for which the “Rotarod Assay (% impaired)” value in series [1] (0.25 hr) is listed as 100%; in series [1] (0.5 hr), 100%; in series [1] (1 hr), 100%; in series [1] (2 hr), 100%; in series [1] (4 hr), 75%. Further, the “Epilepsy 6 Hz (% Protected)” value in the series with 6 Hz psychomotor seizure (0.25 hr), in the series on 6 Hz psychomotor seizure (0.5 hr), in the series with 6 Hz psychomotor seizure (1 hr) and with 6 Hz psychomotor seizure (4 hr) was 100% in each case.
With `N[C@H]1CCCC[C@@H]1C(=O)N1CCC(CC(=O)Nc2cc(F)c(F)cc2F)CC1` (racemic) [Compound 14, trans-2-(1-(2-aminocyclohexanecarbonyl)piperidin-4-yl)-N-(2,4,5-trifluorophenyl)acetamide], the IC50 at α1H (CaV 3.2) is more than 10000 nM.
Same read-out and setting: with `N[C@H]1CCCC[C@@H]1C(=O)N1CCC(CC(=O)Nc2ccc(OC(F)(F)F)cc2)CC1` (racemic) [Compound 18, trans-2-(1-(2-aminocyclohexanecarbonyl)piperidin-4-yl)-N-(4-(trifluoromethoxy)phenyl)acetamide] the figure was 2730 nM; with `N[C@@H]1CCCC[C@@H]1C(=O)N1CCC(O)(CC(=O)Nc2cc(C(F)(F)F)cc(C(F)(F)F)c2)CC1` (racemic) [Compound 52, cis-2-(1-(2-aminocyclohexanecarbonyl)-4-hydroxypiperidin-4-yl)-N-(3,5-bis(trifluoromethyl)phenyl)acetamide], 820 nM.
Consider `NC1(CC(=O)N2CCC(CNC(=O)Nc3cc(C(F)(F)F)cc(C(F)(F)F)c3)CC2)CCCCC1` [Compound 59, 1-((1-(2-(1-aminocyclohexyl)acetyl)piperidin-4-yl)methyl)-3-(3,5-bis(trifluoromethyl)phenyl)urea], for which the “Rotarod Assay (% impaired)” value in series [1] (0.25 hr) is 0%; in series [1] (0.5 hr) it was 25%; in series [1] (1 hr), 75%; in series [1] (2 hr), 100%; in series [1] (4 hr) it was 100%. Also, the “Epilepsy 6 Hz (% Protected)” value in the series on 6 Hz psychomotor seizure (0.25 hr) came out at 25%; in the series on 6 Hz psychomotor seizure (0.5 hr), 50%; in the series with 6 Hz psychomotor seizure (1 hr) it was 100%. Further, the IC50 at α1H (CaV 3.2) stood at 30 nM.
Turning to `N[C@@H]1CCCC[C@@H]1C(=O)N1CCC(NC(=O)Nc2cc(C(F)(F)F)cc(C(F)(F)F)c2)CC1` (racemic) [Compound 63, cis-2-(1-(2-aminocyclohexanecarbonyl)piperidin-4-yl)-3-(3,5-bis(trifluoromethyl)phenyl)urea], the half-inhibitory concentration (IC50) at α1H (CaV 3.2) came out at 430 nM.
Same read-out and setting: with `N[C@@H]1CCCC[C@H]1C(=O)N1CCC(NC(=O)Nc2cc(C(F)(F)F)cc(C(F)(F)F)c2)CC1` (racemic) [Compound 62, trans-2-(1-(2-aminocyclohexanecarbonyl)piperidin-4-yl)-3-(3,5-bis(trifiuoromethyl)phenyl)urea] the figure was 270 nM; with `N[C@H]1CCCC[C@H]1C(=O)N1CCC(CNC(=O)c2cc(C(F)(F)F)cc(C(F)(F)F)c2)CC1` (racemic) [Compound 49], 1930 nM.
For `CC1(CC(=O)Nc2cc(C(F)(F)F)cc(C(F)(F)F)c2)CCN(C(=O)[C@H]2CCCCN2)CC1` [Compound 68], the “Epilepsy 6 Hz (% Protected)” value in the series with 6 Hz psychomotor seizure (0.25 hr) was 50%; with 6 Hz psychomotor seizure (0.5 hr), 75%; in the series on 6 Hz psychomotor seizure (1 hr), 100%; in the series with 6 Hz psychomotor seizure (2 hr) it was 50%; in the series with 6 Hz psychomotor seizure (4 hr), 0%.
`O=C(CC1(O)CCN(C(=O)[C@@H]2CCCCN2)CC1)Nc1cc(C(F)(F)F)cc(C(F)(F)F)c1` [Compound 50, (S)-N-(3,5-bis(trifluoromethyl)phenyl)-2-(4-hydroxy-1-(piperidine-2-carbonyl)piperidin-4-yl)acetamide]: on α1H (CaV 3.2), the IC50 amounted to 520 nM.
